In PubChem BioAssay (NCI):
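GI50 marks 50% less growth. The concentration for full growth arrest is given as TGI.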

What was measured:
Test in all cases: inhibition of tumour cell growth, NCI panel, 384-well format
[1] = test system: PC-3 prostate
[2] = test system: DU-145 prostate
[3] = test system: NCI-H226 lung
[4] = test system: SNB-75 CNS
[5] = test system: MDA-MB-231 breast
[6] = test system: IGROV1 ovarian
[7] = test system: SR leukemia
[8] = test system: MOLT-4 leukemia
[9] = test system: T-47D breast
[10] = test system: OVCAR-4 ovarian
[11] = test system: MALME-3M melanoma
[12] = test system: KM12 colon
[13] = test system: EKVX NSCLC
[14] = test system: HCT-15 colon
[15] = test system: HT29 colon
[16] = test system: SF-295 CNS
[17] = test system: M14 melanoma
[18] = test system: SK-MEL-2 melanoma
[19] = test system: HOP-62 NSCLC
[20] = test system: SF-268 CNS
[21] = test system: HCT-116 colon
[22] = test system: HOP-92 NSCLC
[23] = test system: K-562 leukemia
[24] = test system: HS 578T breast
[25] = test system: SN12C renal
[26] = test system: OVCAR-3 ovarian
[27] = test system: ACHN renal
[28] = test system: SF-539 CNS
[29] = test system: OVCAR-5 ovarian
[30] = test system: TK-10 renal
[31] = test system: SK-MEL-5 melanoma
[32] = test system: UO-31 renal
[33] = test system: UACC-62 melanoma
[34] = test system: HL-60(TB) leukemia
[35] = test system: UACC-257 melanoma
[36] = test system: MDA-MB-468 breast
[37] = test system: BT-549 breast
[38] = test system: CAKI-1 renal
[39] = test system: A549 NSCLC
[40] = test system: MDA-MB-435 melanoma
[41] = test system: MCF7 breast
[42] = test system: RXF 393 renal
[43] = test system: U251 glioblastoma
[44] = test system: 786-0 renal
[45] = test system: NCI-H23 lung
[46] = test system: SW-620 colon
[47] = test system: SK-OV-3 ovarian
[48] = test system: NCI-H522 lung
[49] = test system: SK-MEL-28 melanoma
[50] = test system: A498 renal
[51] = test system: NCI-H322M lung
[52] = test system: COLO 205 colon
[53] = test system: OVCAR-8 ovarian
[54] = test system: SNB-19 CNS

## O=C(NCCc1ccccc1)C(c1csc2ccccc12)N(C(=O)CCl)c1ccc(-c2cnco2)cc1 (configuration not stated)
[1]
  GI50: 110 nM
  TGI: 245 nM
[2]
  GI50: 62 nM
  TGI: 1400 nM
[3]
  GI50: 193 nM
  TGI: 724 nM
[4]
  GI50: 19.1 nM
  TGI: 38 nM
[5]
  GI50: 19.9 nM
  TGI: 43.3 nM
[6]
  GI50: 18.2 nM
  TGI: 34 nM
[7]
  GI50: 17.6 nM
  TGI: 31.9 nM
[8]
  GI50: 20.2 nM
  TGI: 36.4 nM
[9]
  GI50: 37.7 nM
  TGI: 148 nM
[10]
  GI50: 16.8 nM
  TGI: 30.8 nM
[11]
  GI50: 56.4 nM
  TGI: 180 nM
[12]
  GI50: 483 nM
  TGI: 1640 nM
[13]
  GI50: 15.7 nM
  TGI: 32.1 nM
[14]
  GI50: 77.6 nM
  TGI: 216 nM
[15]
  GI50: 127 nM
  TGI: 273 nM
[16]
  GI50: 131 nM
  TGI: 261 nM
[17]
  GI50: 138 nM
  TGI: 288 nM
[18]
  GI50: 29.7 nM
  TGI: 102 nM
[19]
  GI50: 23.7 nM
  TGI: 68.4 nM
[20]
  GI50: 70.3 nM
  TGI: 198 nM
[21]
  GI50: 287 nM
  TGI: 1030 nM
[22]
  GI50: 16.9 nM
  TGI: 31.1 nM
[23]
  GI50: 78.4 nM
  TGI: 212 nM
[24]
  GI50: 113 nM
  TGI: 238 nM
[25]
  GI50: 1040 nM
  TGI: 2220 nM
[26]
  GI50: 145 nM
  TGI: 314 nM
[27]
  GI50: 16 nM
  TGI: 30 nM
[28]
  GI50: 16.5 nM
  TGI: 34.9 nM
[29]
  GI50: 349 nM
  TGI: 1310 nM
[30]
  GI50: 18.6 nM
  TGI: 36.4 nM
[31]
  GI50: 358 nM
  TGI: 1680 nM
[32]
  GI50: < 10 nM
[33]
  GI50: 18 nM
  TGI: 34 nM
[34]
  GI50: 21.4 nM
  TGI: 36.4 nM
[35]
  GI50: 121 nM
  TGI: 412 nM
[36]
  GI50: 21.5 nM
  TGI: 88.1 nM
[37]
  GI50: 37.6 nM
  TGI: 131 nM
[38]
  GI50: < 10 nM
  TGI: 19 nM
[39]
  GI50: 263 nM
  TGI: 1580 nM
[40]
  GI50: 432 nM
  TGI: 1680 nM
[41]
  GI50: 342 nM
  TGI: 1480 nM
[42]
  GI50: 10.8 nM
  TGI: 23.2 nM
[43]
  GI50: 101 nM
  TGI: 239 nM
[44]
  GI50: 16.5 nM
  TGI: 33.2 nM
[45]
  GI50: 16.5 nM
  TGI: 35 nM
[46]
  GI50: 151 nM
  TGI: 289 nM
[47]
  GI50: 197 nM
  TGI: 394 nM
[48]
  GI50: < 10 nM
  TGI: 15.1 nM
[49]
  GI50: 1430 nM
  TGI: 2740 nM
[50]
  GI50: 104 nM
  TGI: 222 nM
[51]
  GI50: 1680 nM
  TGI: 3050 nM
[52]
  GI50: 1460 nM
  TGI: 2780 nM
[53]
  GI50: 19.6 nM
  TGI: 56.6 nM
[54]
  GI50: 1760 nM
  TGI: 3160 nM
